Measured values published in patent publication US20220204497A1, “NOVEL COMPOUND HAVING ANTICANCER ACTIVITY, AND METHOD FOR PRODUCING SAME” (MEDICINAL BIOCONVERGENCE RESEARCH CENTER, priority 2019, published 2022).

Tests used:
[1] = system: A549 cells; experiment: Cell viability by MTT method in A549 cells; assay type: cell-based; design: concentration or dose not given beside the values; conditions: 72 hours treatment
[2] = molecular target: T1, AIMP2-DX2 (Homo sapiens, UniProt Q13155); experiment: DX2-nanoluciferase assay (DX2 expression change) in transfected A549 cells; conditions: for DX-Nanoluciferase activity (10 μM) / DX-Nanoluciferase activity (40 μM): 4 hours treatment, A549 cells transfected with nanoluciferase-DX2; for inhibition at 10 µM / inhibition at 40 µM: A549, 4 h; for inhibition at 10 µM: read-out: DX-Nanoluciferase activity (10 μM), 10 μM, 4 hours treatment, A549 cells transfected with nanoluciferase-DX2; for inhibition at 40 µM: read-out: DX-Nanoluciferase activity (40 μM), 40 μM, 4 hours treatment, A549 cells transfected with nanoluciferase-DX2; for inhibition at 40 µM / DX-Nanoluciferase activity (40 μM): inhibitory effect on AIMP2-DX2 expression
T1 sequence (Q13155 1-251 isoform Q13155-2): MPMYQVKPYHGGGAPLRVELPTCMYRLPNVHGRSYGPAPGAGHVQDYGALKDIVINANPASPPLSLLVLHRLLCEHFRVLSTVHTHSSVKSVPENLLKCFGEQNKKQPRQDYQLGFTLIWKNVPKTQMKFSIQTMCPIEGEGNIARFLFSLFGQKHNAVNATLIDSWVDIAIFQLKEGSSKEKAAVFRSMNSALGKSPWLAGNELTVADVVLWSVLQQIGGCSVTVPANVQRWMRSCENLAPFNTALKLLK
Description: After cloning DX2 into a plasmid expressing nanoluciferase, the plasmid was transfected into A549 cells. Transfected cells were seeded 1×10^4 per well in a 96-well plate and stabilized for 12 hours. […] Cell viability was measured by the MTT method after 72 hours of treatment with each concentration of the compound in A549 cells.

SMILES	Cell Viability (% inhibition) (A549) [1]	DX-Nanoluciferase activity (10 μM) [2]	inhibition at 10 µM [2] [%]	inhibition at 40 µM [2] [%]	DX-Nanoluciferase activity (40 μM) [2]
COc1ccc(C(=O)NNC(=O)[C@H](Cc2c[nH]c3ccccc23)NS(=O)(=O)c2ccc(C)cc2)cc1 [Compound 191, (S)—N-(3-(1H-Indol-3-yl)-1-(2-(4-methoxybenzoyl)hydrazinyl)-1-oxopropan-2-yl)-4-methylbenzenesulfonamide]	49.17 ± 2.36%	8.09 ± 6.94 (10 μM)	–	–	–
COc1cc(N2CCN(C(=O)OC(C)(C)C)CC2)ccc1NC(=O)[C@H](Cc1c[nH]c2ccccc12)NS(=O)(=O)c1ccc(C)cc1 [Compound 120, (S)-tert-Butyl 4-(4-(3-(1H-indol-3-yl)-2-(4-methylphenylsulfonamido)propanamido)-3-methoxyphenyl)piperazine-1-carboxylate]	66.51 ± 1.24%	–	21.3 ± 14.2	–	–
O=C(NCCCc1ccccc1)[C@H](Cc1c[nH]c2ccccc12)NS(=O)(=O)c1ccc(Br)cc1 [Compound 200, (S)-2-(4-Bromophenylsulfonamido)-3-(1H-indol-3-yl)-N-(3-phenylpropyl)propanamide]	79.27 ± 0.9%	–	–	46.4 ± 4.51	–
COc1ccc(-c2csc(NC(=O)[C@H](Cc3c[nH]cn3)NS(=O)(=O)c3ccc(Br)cc3)n2)cc1 [Compound 102, (S)-2-(4-Bromophenylsulfonamido)-3-(1H-Imidazol-4-yl)-N-(4-(4-methoxyphenyl)thiazol-2-yl)propanamide]	91.03 ± 6.44%	–	–	27.2 ± 5.87	–
CC(C)C[C@H](NS(=O)(=O)c1cccs1)C(=O)Nc1ccc(N2CCOCC2)cc1 [Compound 30, (S)-4-methyl-N-(4-morpholinophenyl)-2-(thiophene-2-sulfonamido)pentanamide]	9.46 ± 9.61%	–	–	23.7 ± 3.1	–
COc1ccc(CCNC(=O)[C@H](Cc2c[nH]c3ccccc23)NS(=O)(=O)c2ccc(Br)cc2)cc1 [Compound 199, (S)-2-(4-Bromophenylsulfonamido)-3-(1H-indol-3-yl)-N-(4-methoxyphenethyl)propanamide]	84.34 ± 0.87%	–	–	30.6 ± 8.13	–
Cc1ccc(S(=O)(=O)N[C@@H](Cc2c[nH]c3ccccc23)C(=O)N2CCOCC2)cc1 [Compound 70, (S)—N-(3-(1H-indol-3-yl)-1-morpholino-1-oxopropan-2-yl)-4-methylbenzenesulfonamide]	23.61 ± 2.18%	–	–	59.7 ± 3.49	–
Cc1cnc(NC(=O)[C@H](Cc2c[nH]c3ccccc23)NS(=O)(=O)c2ccc(Br)cc2)s1 [Compound 110, (S)-2-(4-Bromophenylsulfonamido)-3-(1H-indol-3-yl)-N-(5-methylthiazol-2-yl)propanamide]	8.95 ± 3.66%	–	–	46.7 ± 7.18	–
Cc1ccc(S(=O)(=O)N[C@H](C(=O)Nc2ccc(N3CCOCC3)cc2)[C@H](C)O)cc1 [Compound 42, (2S,3S)-3-hydroxy-2-(4-methylphenylsulfonamido)-N-(4-morpholinophenyl)butanamide]	13.24 ± 6.93%	–	–	-12.8 ± 10.6	–
CC(C)NC(=O)[C@H](Cc1c[nH]c2ccccc12)NS(=O)(=O)c1ccc(Br)cc1 [Compound 181, (S)-2-(4-Bromophenylsulfonamido)-3-(1H-indol-3-yl)-N-isopropylpropanamide]	98.95 ± 0.74%	–	–	44.1 ± 2.97	–
CC(C)C[C@H](NS(=O)(=O)c1ccc(C(F)(F)F)cc1)C(=O)Nc1ccc(N2CCOCC2)cc1 [Compound 23, (S)-4-methyl-N-(4-morpholinophenyl)-2-(4-(trifluoromethyl)phenylsulfonamido)pentanamide]	64.35%	–	–	24.5 ± 4.4	–
Cc1ccc(S(=O)(=O)N[C@@H](Cc2c[nH]c3ccccc23)C(=O)NC(C)C)cc1 [Compound 180, (S)-3-(1H-indol-3-yl)-N-isopropyl-2-(4-methylphenylsulfonamido)propanamide]	28.20 ± 5.02%	–	–	4.04 ± 4.08	–
O=C(Nc1ccc(N2CCOCC2)cc1)[C@H](Cc1c[nH]c2ccccc12)NS(=O)(=O)c1ccc(C(F)(F)F)cc1 [Compound 68, (S)-3-(1H-indol-3-yl)-N-(4-morpholinophenyl)-2-(4-(trifluoromethyl)phenylsulfon-amido)propanamide]	76.90 ± 0.51%	–	–	–	48.06 ± 6.78
Cc1ccc(S(=O)(=O)N[C@@H](CC(C)C)C(=O)Oc2ccc(-c3csc(N)n3)cc2)cc1 [Compound 93, (S)-4-(2-Aminothiazol-4-yl)phenyl 4-methyl-2-(4-methylphenylsulfonamido)pentanoate]	48.85 ± 9.03%	–	–	22.5 ± 3.96	–
Cc1ccc(S(=O)(=O)N[C@@H](Cc2c[nH]c3ccccc23)C(=O)NC(Cc2c[nH]c3ccccc23)C(=O)O)cc1 (stereo partly drawn) [Compound 226, 2-((S)-3-(1H-indol-3-yl)-2-(4-methylphenylsulfonamido)propanamido)-3-(1H-Indol-3-yl)propanoic acid]	1.11 ± 7.23%	–	38.1 ± 14.9	–	–
O=C(Nc1nc(-c2ccccc2Cl)cs1)[C@H](Cc1c[nH]c2ccccc12)NS(=O)(=O)c1ccc(Br)cc1 [Compound 107, (S)-2-(4-Bromophenylsulfonamido)-N-(4-(2-chlorophenyl)thiazol-2-yl)-3-(1H-indol-3-yl)propanamide]	59.19 ± 2.09%	–	–	37 ± 12.5	–
Cc1ccc(S(=O)(=O)N[C@@H](Cc2c[nH]c3ccccc23)C(=O)Nc2nc(C)cs2)cc1 [Compound 83, (S)-3-(1H-indol-3-yl)-2-(4-methylphenylsulfonamido)-N-(4-methylthiazol-2-yl)propanamide]	97.43 ± 2.01%	–	–	17.4 ± 3.23	–
O=C(O)c1ccc(S(=O)(=O)N[C@@H](Cc2c[nH]c3ccccc23)C(=O)Nc2ccc(N3CCOCC3)cc2)cc1 [Compound 159, (S)-4-(N-(3-(1-indol-3-yl)-1-(4-morpholinophenylamino)-1-oxopropan-2-yl)sulfamoyl)benzoic acid]	24.60 ± ? .96%	1.75 ± 8.96 (10 μM)	–	–	–
Cc1ccc(S(=O)(=O)N[C@@H](Cc2c[nH]c3ccccc23)C(=O)NCCc2c[nH]c3ccccc23)cc1 [Compound 222, (S)—N-(2-(1H-indol-3-yl)ethyl)-3-(1H-indol-3-yl)-2-(4-methylphenylsulfonamido)propanamide]	91.05 ± 1.38%	–	31.3 ± 14.7	–	–
CC(C)(C)c1ccc(S(=O)(=O)N[C@@H](Cc2c[nH]c3ccccc23)C(=O)Nc2ccc(N3CCOCC3)cc2)cc1 [Compound 106, (S)-2-(4-tert-Butylphenylsulfonamido)-3-(1H-indol-3-yl)-N-(4-morpholinophenyl)propan amide]	17.13 ± 5.35%	68.14 ± 9.57 (10 μM)	–	–	–
Cc1ccc(S(=O)(=O)N[C@@H](Cc2cc3ccccc3[nH]2)C(=O)Nc2ccc(N3CCOCC3)cc2)cc1 [Compound 46, (S)-3-(1H-indol-2-yl)-2-(4-methylphenylsulfonamido)-N-(4-morpholinophenyl) propanamide]	61.35 ± 10.27%	–	–	–	67.1 ± 10.8
